Holding throughout (type): protein assay
Common to all, as to parameters: concentration or dose not given beside the values

In assay [1] the target is T1, Protein cereblon/Bromodomain-containing protein 4 (Homo sapiens) (UniProt O60885+Q96SW2). Kind of assay: PROTAC activity at CRBN/BRD4 (unknown origin) assessed as BRD4 degradation in presence of (1S,4R,5R,6S)-N-((2-(2,6-dioxopiperidin-3-yl)-1,3-dioxoisoindolin-4-yl)methyl)-5,6- dihydroxy bicyclo[2.2.1]heptane-2-carboxamide (CRB-N8066) by Western blot analysis. On the technique in general: In western blotting, separated proteins are transferred to a membrane and probed.

The target in assay [2] is T1, Protein cereblon/Bromodomain-containing protein 4 (Homo sapiens). The assay can be described thus: PROTAC activity at CRBN/BRD4 (unknown origin) assessed as BRD4 degradation in presence of N-((2-(2,6-dioxopiperidin-3-yl)-1,3-dioxoisoindolin-4-yl)methyl)-3,4- dihydroxy benzamide (CRB-N8046) by Western blot analysis.
Assay [3] shares this target. The assay can be described thus: PROTAC activity at CRBN/BRD4 (unknown origin) assessed as BRD4 degradation in presence of N-((2-(2,6-dioxopiperidin-3-yl)-1,3-dioxoisoindolin-4-yl)methyl)-2,3- dihydroxy benzamide (CRB-N8047) by Western blot analysis.

This is an account of results in ChEMBL document CHEMBL5126616, “Therapeutic and Effective CURE-PRO Molecules for E3 Ligase-Mediated Targeted Protein Degradation” (ACS Med Chem Lett, 2022).

T1 sequence (Q96SW2 whole entry, looked up, other chains not shown): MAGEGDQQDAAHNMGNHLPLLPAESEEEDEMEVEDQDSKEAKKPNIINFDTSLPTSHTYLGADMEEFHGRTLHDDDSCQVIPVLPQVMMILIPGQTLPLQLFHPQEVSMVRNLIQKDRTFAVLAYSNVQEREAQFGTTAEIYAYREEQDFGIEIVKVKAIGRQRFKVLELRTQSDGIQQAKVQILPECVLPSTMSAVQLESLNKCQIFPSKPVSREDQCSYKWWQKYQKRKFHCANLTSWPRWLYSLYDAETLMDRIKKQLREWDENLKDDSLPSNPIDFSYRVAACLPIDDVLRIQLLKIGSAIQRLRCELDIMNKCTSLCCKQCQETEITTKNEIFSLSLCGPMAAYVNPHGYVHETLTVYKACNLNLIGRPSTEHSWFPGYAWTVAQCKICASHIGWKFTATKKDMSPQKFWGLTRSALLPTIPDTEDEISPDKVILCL

On to `COc1ccc2c(c1)C(c1ccc(Cl)cc1)=N[C@@H](CC(=O)NCCCCCNC(=O)c1ccc(B(O)O)cc1)c1nnc(C)n1-2`, for which the Activity in assay [1] was determined as 30%.
As for `COc1ccc2c(c1)C(c1ccc(Cl)cc1)=N[C@@H](CC(=O)NCCCNC(=O)c1cccc(B(O)O)c1)c1nnc(C)n1-2`, the Activity in assay [2], in assay [3] and in assay [1] was 30% throughout.
As to `COc1ccc2c(c1)C(c1ccc(Cl)cc1)=N[C@@H](CC(=O)NCCCCNC(=O)c1ccc(B(O)O)cc1)c1nnc(C)n1-2`, the Activity in assay [3] and in assay [1] was 30% in each case.
As to `CCNC(=O)C[C@@H]1N=C(c2ccc(Cl)cc2)c2cc(OCCCCC(=O)Nc3cccc(B(O)O)c3)ccc2-n2c(C)nnc21`, the Activity in assay [2] and in assay [1] was 30% in each case.
Regarding `COc1ccc2c(c1)C(c1ccc(Cl)cc1)=N[C@@H](CC(=O)NCCc1ccc(B(O)O)cc1)c1nnc(C)n1-2`, the Activity in assay [3] came out at 30%.
With `COc1ccc2c(c1)C(c1ccc(Cl)cc1)=N[C@@H](CC(=O)NCc1ccc(B(O)O)cc1)c1nnc(C)n1-2`, the Activity in assay [3] was determined as 30%.
For `COc1ccc2c(c1)C(c1ccc(Cl)cc1)=N[C@@H](CC(=O)NCCCCCNC(=O)c1cccc(B(O)O)c1)c1nnc(C)n1-2`, the Activity in assay [2] and in assay [1] was 30% throughout.
Turning to `COc1ccc2c(c1)C(c1ccc(Cl)cc1)=N[C@@H](CC(=O)NCCNC(=O)/C=C/c1cccc(B(O)O)c1)c1nnc(C)n1-2`, the Activity in assay [3] and in assay [1] was 30% each time.
Regarding `COc1ccc2c(c1)C(c1ccc(Cl)cc1)=N[C@@H](CC(=O)NCCNC(=O)/C=C/c1ccc(B(O)O)cc1)c1nnc(C)n1-2`, the Activity in assay [2], in assay [3] and in assay [1] was 30% each time.
Consider `COc1ccc2c(c1)C(c1ccc(Cl)cc1)=N[C@@H](CC(=O)NCc1cccc(B(O)O)c1)c1nnc(C)n1-2`, for which the Activity in assay [2] and in assay [3] was 30% throughout.
